Measured values taken from ChEMBL document CHEMBL5608199, “Quaternized antimicrobial peptide mimics based on harmane as potent anti-MRSA agents by multi-target mechanism covering cell wall, cell membrane and intracellular targets” (Eur J Med Chem, 2024).
≈ marks a conversion by molar mass, not a printed value. Calls of active or inactive are those of the source. No cut-off for these calls is given here.

How the values were obtained:
Staphylococcus aureus [1] = experiment: Antibacterial activity against methicillin-resistant Staphylococcus aureus; assay type: functional
Staphylococcus aureus [2] = experiment: Antibacterial activity against Staphylococcus aureus CMCC 26003 incubated for 18 hrs by two fold serial broth dilution method; assay type: functional
Staphylococcus aureus [3] = experiment: Antibacterial activity against methicillin-resistant Staphylococcus aureus CGMCC 1.12409 incubated for 18 hrs by two fold serial broth dilution method; assay type: functional
Escherichia coli = experiment: Antibacterial activity against Escherichia coli ATCC 8739 incubated for 18 hrs by two fold serial broth dilution method; assay type: functional
Staphylococcus aureus [4] = experiment: Antibacterial activity against methicillin-resistant Staphylococcus aureus ATCC 43300 incubated for 18 hrs by two fold serial broth dilution method; assay type: functional
Staphylococcus aureus [5] = experiment: Antibacterial activity against Staphylococcus aureus ATCC 29213 incubated for 18 hrs by two fold serial broth dilution method; assay type: functional
Staphylococcus aureus [6] = experiment: Antibacterial activity against methicillin-resistant Staphylococcus aureus ATCC 33591 incubated for 18 hrs by two fold serial broth dilution method; assay type: functional
Staphylococcus sp. = experiment: Antibacterial activity against Staphylococcus sp. 772 assessed as inhibition of bacterial growth incubated for 24 hrs by microdilution method; assay type: functional
Staphylococcus aureus [7] = experiment: (§1) Antibacterial activity against methicillin-resistant Staphylococcus aureus ATCC 33591 infected in cyclophosphamide treated female KM mouse skin infection model assessed as reduction in number of bacterial clones in skin at 3.3 to 13.2 mg/kg administered for 4 days and measured on day 5; assay type: functional, organism-based; conditions: dose 3.3-13.2 mg/kg, time 5.0 day
Staphylococcus aureus [8] = experiment: Antibacterial activity against methicillin-resistant Staphylococcus aureus ATCC 33591 infected in cyclophosphamide treated female KM mouse skin infection model assessed as log reduction in bacterial load in abscess at 3.3 mg/kg administered for 4 days and measured on day 5; assay type: functional; conditions: time 5 day
Staphylococcus aureus [9] = experiment: Induction of morphological changes in methicillin-resistant Staphylococcus aureus ATCC 33591 assessed as appearance of cracked cell morphology at 1 ug/ml measured after 6 hrs by SEM analysis; assay type: functional, organism-based; conditions: dose 1.0 µg/ml
[10] = Hemolytic activity at sheep Red blood cells at 256 ug/ml; assay type: toxicity, cell-based, Ovis aries, Erythrocyte; conditions: sheep red blood cells (erythrocytes), at 256 µg/mL, read-out: Activity
Staphylococcus aureus [11] = experiment: as §1, with “reduction in inflammatory cell infiltration at 3.3” for “reduction in number of bacterial clones in skin at 3.3”, “day 5 by H and E staining based analysis” for “day 5”; assay type: functional, organism-based; conditions: dose 3.3-13.2 mg/kg, time 5.0 day
Staphylococcus aureus [12] = experiment: Antibacterial activity against methicillin-resistant Staphylococcus aureus clinical isolate M-15 incubated for 18 hrs by two fold serial broth dilution method; assay type: functional
Staphylococcus aureus [13] = experiment: Bactericidal activity against methicillin-resistant Staphylococcus aureus ATCC 33591 assessed as log reduction in viable bacterial count at 8 times MIC measured after 10 hrs by time-kill assay; assay type: functional
Staphylococcus aureus [14] = experiment: Antibacterial activity against methicillin-resistant Staphylococcus aureus ATCC 33591 assessed as reduction in LDH activity; assay type: functional, organism-based; conditions: dose 0-4 µg/ml
Staphylococcus aureus [15] = experiment: Induction of ROS generation in methicillin-resistant Staphylococcus aureus ATCC 33591 assessed as increase in ROS level; assay type: functional, organism-based; conditions: dose 0-4 µg/ml
Staphylococcus aureus [16] = experiment: Induction of oxidative damage in methicillin-resistant Staphylococcus aureus ATCC 33591 assessed as loss of GSH activity; assay type: functional, organism-based; conditions: dose 0-4 µg/ml
Staphylococcus aureus [17] = experiment: Antibacterial activity against methicillin-resistant Staphylococcus aureus ATCC 33591 infected in cyclophosphamide treated female KM mouse skin infection model assessed as reduction in bacterial load in abscess administered for 4 days and measured on day 5; assay type: functional, organism-based; conditions: dose 3.3-13.2 mg/kg, time 5.0 day
Staphylococcus aureus [18] = experiment: Bacteriostatic activity against methicillin-resistant Staphylococcus aureus ATCC 33591 assessed as log reduction in viable bacterial count at 1 to 4 times MIC measured at 10 hrs by time-kill assay; assay type: functional
Staphylococcus aureus [19] = experiment: Antibacterial activity against methicillin-resistant Staphylococcus aureus clinical isolate M-19 incubated for 18 hrs by two fold serial broth dilution method; assay type: functional
Erythrocyte = experiment: Hemolytic activity at sheep Red blood cells at 0.5 to 128 ug/ml; assay type: toxicity, cell-based, Ovis aries; conditions: dose 0.5-128 µg/ml
Calf thymus DNA [20] = experiment: Binding affinity to calf thymus DNA assessed as increase in absorption wavelength intensity at 0 to 2.4 x 10^-5M by absorption spectroscopy; assay type: nucleic-acid assay; conditions: Bos taurus; dose 0-2.4 10^-5M
Cell membrane [21] = experiment: Disruption of membrane integrity in methicillin-resistant Staphylococcus aureus ATCC 33591 assessed as appearance of blue and green fluorescence at 1 ug/ml by DAPI/SYTOX Green double staining assay; assay type: cell membranes; conditions: dose 1.0 µg/ml
[22] = Cytotoxicity against human HTR-8/SVneo cells assessed as cell viability at 0.5 ug/ml by CCK-8 assay relative to control; assay type: toxicity, cell-based; conditions: at 0.5 µg/mL, read-out: Activity
Staphylococcus aureus [23] = experiment: Antibacterial activity against methicillin-resistant Staphylococcus aureus ATCC 33591 assessed as inhibition of bacterial growth in presence of 0 to 128 ug/ml peptidoglycan by exogenous addition assay (reference value: 0.5 ug/ml); assay type: functional
Staphylococcus aureus [24] = experiment: Induction of morphological changes in methicillin-resistant Staphylococcus aureus ATCC 33591 assessed as appearance of adhesive cell morphology at 1 ug/ml measured after 6 hrs by SEM analysis; assay type: functional, organism-based; conditions: dose 1.0 µg/ml
Staphylococcus aureus [25] = experiment: Antibacterial activity against methicillin-resistant Staphylococcus aureus clinical isolate M-20 incubated for 18 hrs by two fold serial broth dilution method; assay type: functional
Staphylococcus aureus [26] = experiment: Antibacterial activity against methicillin-resistant Staphylococcus aureus ATCC 33591 assessed as neutralization of negative charge in cell wall by measuring increase in surface potential; assay type: functional, organism-based; conditions: dose 0-256 µg/ml
Staphylococcus aureus [27] = experiment: Antibacterial activity against methicillin-resistant Staphylococcus aureus clinical isolate M-16 incubated for 18 hrs by two fold serial broth dilution method; assay type: functional
Staphylococcus aureus [28] = experiment: Induction of oxidative damage in methicillin-resistant Staphylococcus aureus ATCC 33591 assessed as reduction in SOD activity; assay type: functional, organism-based; conditions: dose 0-4 µg/ml
Staphylococcus aureus [29] = experiment: Induction of ROS generation in methicillin-resistant Staphylococcus aureus ATCC 33591 assessed as fold increase in ROS level at 0.5 ug/ml relative to control; assay type: functional; conditions: dose 0.5 µg/ml
Cell membrane [30] = experiment: Disruption of membrane integrity in methicillin-resistant Staphylococcus aureus ATCC 33591 assessed as increase in nucleic acid leakage; assay type: cell membranes; conditions: dose 0-4 µg/ml
Staphylococcus aureus [31] = experiment: Antibacterial activity against methicillin-resistant Staphylococcus aureus ATCC 33591 infected in cyclophosphamide treated female KM mouse skin infection model assessed as log reduction in bacterial load in abscess at 13.2 mg/kg administered for 4 days and measured on day 5; assay type: functional; conditions: time 5 day
Cell membrane [32] = experiment: Induction of membrane depolarization in methicillin-resistant Staphylococcus aureus ATCC 33591 assessed as increase in fluorescence intensity at 1 to 4 times MIC by DiSC3(5) staining based assay; assay type: cell membranes; conditions: time 0-120 min, TDE = time-dependent effect
[33] = Stability in sheep plasma assessed as increase in MIC measured after 0 to 6 hrs; assay type: ADME, cell-free, Ovis aries; conditions: time 0-6 hrs
Staphylococcus aureus [34] = experiment: Antibacterial activity against methicillin-resistant Staphylococcus aureus ATCC 33591 assessed as reduction in LDH activity at 4 ug/ml measured after 8 hrs relative to control; assay type: functional; set-up: scale not given: the % may be the effect or the level left; conditions: dose 4 µg/ml
Staphylococcus aureus [35] = experiment: Antibacterial activity against methicillin-resistant Staphylococcus aureus ATCC 33591 assessed as reduction in metabolic activity by alamar blue assay; assay type: functional, organism-based; conditions: dose 0-4 µg/ml
[36] = Cytotoxicity against human HTR-8/SVneo cells assessed as cell viability at 8 ug/ml by CCK-8 assay relative to control; assay type: toxicity, cell-based; conditions: at 8 µg/mL, read-out: Activity
Staphylococcus aureus [37] = experiment: Antibacterial activity against methicillin-resistant Staphylococcus aureus ATCC 33591 assessed as inhibition of bacterial growth at 0.5 ug/ml measured after 8 hrs relative to control; assay type: functional
Cell membrane [38] = experiment: Disruption of membrane integrity in methicillin-resistant Staphylococcus aureus ATCC 33591 assessed as increase in fluorescence intensity by PI staining based fluorescence assay; assay type: cell membranes; conditions: dose 0-4 µg/ml
Calf thymus DNA [39] = experiment: Binding affinity to calf thymus DNA assessed as reduction in fluorescence intensity at 3 x 10^-5M by fluorescence spectroscopy; assay type: nucleic-acid assay; conditions: Bos taurus; dose 3.0 10^-5M
Staphylococcus aureus [40] = experiment: Antibacterial activity against methicillin-resistant Staphylococcus aureus clinical isolate M-14 incubated for 18 hrs by two fold serial broth dilution method; assay type: functional
Cell membrane [41] = experiment: Induction of membrane depolarization in methicillin-resistant Staphylococcus aureus ATCC 33591 assessed as increase in fluorescence intensity at 1 to 4 times MIC measured after 0 to 120 mins by DiSC3(5) staining based assay; assay type: cell membranes; conditions: time 0-120 min
Cell membrane [42] = experiment: Disruption of membrane integrity in methicillin-resistant Staphylococcus aureus ATCC 33591 assessed as increase in protein leakage; assay type: cell membranes; conditions: dose 0-4 µg/ml
Lipoteichoic acid = experiment: Displacement of BODIPY-TR-cadaverine from methicillin-resistant Staphylococcus aureus ATCC 33591 lipoteichoic acid assessed as increase in fluorescence intensity; conditions: dose 0.5-4 µg/ml
Staphylococcus aureus [43] = experiment: Antibacterial activity against methicillin-resistant Staphylococcus aureus clinical isolate M-18 incubated for 18 hrs by two fold serial broth dilution method; assay type: functional
Cell membrane [44] = experiment: Disruption of membrane integrity in methicillin-resistant Staphylococcus aureus ATCC 33591 assessed as fold increase in nucleic acid leakage at 1 ug/ml relative to control; assay type: cell membranes; conditions: dose 1.0 µg/ml
Staphylococcus aureus [45] = experiment: Antibacterial activity against methicillin-resistant Staphylococcus aureus clinical isolate M-17 incubated for 18 hrs by two fold serial broth dilution method; assay type: functional
Staphylococcus aureus [46] = experiment: Induction of morphological changes in methicillin-resistant Staphylococcus aureus ATCC 33591 assessed as appearance of irregular cell morphology at 1 ug/ml measured after 6 hrs by SEM analysis; assay type: functional, organism-based; conditions: dose 1.0 µg/ml

COc1ccc2c(c1)c1cc[n+](C)cc1n2CCCCCCCCn1c2ccc(OC)cc2c2cc[n+](C)cc21.[I-].[I-]
MIC (Staphylococcus aureus [1]): 2 µg/mL

Cc1nccc2c1[nH]c1ccccc12 [HARMAN]
MIC (Staphylococcus aureus [2]): 128 µg/mL (≈ 702 µM) | MIC (Staphylococcus aureus [3]): > 128 µg/mL | MIC (Escherichia coli): 8 µg/mL (≈ 43.9 µM) | MIC (Staphylococcus aureus [4]): 128 µg/mL (≈ 702 µM) | MIC (Staphylococcus aureus [5]): 128 µg/mL (≈ 702 µM) | MIC (Staphylococcus aureus [6]): 128 µg/mL (≈ 702 µM) | MIC (Staphylococcus sp.): 18 µg/mL (≈ 98.8 µM)

Cc1c2c(cc[n+]1C)c1ccccc1n2CCCCCCCCn1c2ccccc2c2cc[n+](C)c(C)c21.[I-].[I-]
Activity (Staphylococcus aureus [7]): Active | log(activity) (Staphylococcus aureus [8]): 1.27 | MIC (Staphylococcus aureus [2]): 0.5 µg/mL | Activity (Staphylococcus aureus [9]): Active | hemolysis at 256 ug/ml [10]: 7.71% | Activity (Staphylococcus aureus [11]): Active | MIC (Staphylococcus aureus [12]): 2 µg/mL | MIC (Staphylococcus aureus [3]): 1 µg/mL | log(activity) (Staphylococcus aureus [13]): 3.44 | Activity (Staphylococcus aureus [14]): Dose-Dependent Effect | Activity (Staphylococcus aureus [15]): Dose-Dependent Effect | Activity (Staphylococcus aureus [16]): Dose-Dependent Effect | Activity (Staphylococcus aureus [17]): Dose-Dependent Effect | log(activity) (Staphylococcus aureus [18]): <3 | MIC (Escherichia coli): 8 µg/mL | MIC (Staphylococcus aureus [19]): 1 µg/mL | Activity (Erythrocyte): Non-Toxic | Activity (Calf thymus DNA [20]): Active | Activity (Cell membrane [21]): Active | MIC (Staphylococcus aureus [4]): 2 µg/mL | viability at 0.5 ug/ml [22]: 110% | MIC (Staphylococcus aureus [5]): 4 µg/mL | MIC (Staphylococcus aureus [23]): 8 µg/mL | Activity (Staphylococcus aureus [24]): Active | MIC (Staphylococcus aureus [25]): 1 µg/mL | Activity (Staphylococcus aureus [26]): Dose-Dependent Effect | MIC (Staphylococcus aureus [27]): 1 µg/mL | Activity (Staphylococcus aureus [28]): Dose-Dependent Effect | MIC (Staphylococcus aureus [6]): 0.5 µg/mL | fold change (FC) (Staphylococcus aureus [29]): 1.25 | Activity (Cell membrane [30]): Dose-Dependent Effect | log(activity) (Staphylococcus aureus [31]): 4.06 | Activity (Cell membrane [32]): Tde | Stability [33]: Stable | Activity (Staphylococcus aureus [34]): 87.21% | Activity (Staphylococcus aureus [35]): Dose-Dependent Effect | viability at 8 ug/ml [36]: 97.8% | inhibition at 0.5 µg/mL (Staphylococcus aureus [37]): 100% | Activity (Cell membrane [38]): Dose-Dependent Effect | Activity (Calf thymus DNA [39]): Active | MIC (Staphylococcus aureus [40]): 1 µg/mL | Activity (Cell membrane [41]): Dose-Dependent Effect | Activity (Cell membrane [42]): Dose-Dependent Effect | Activity (Lipoteichoic acid): Dose-Dependent Effect | MIC (Staphylococcus aureus [43]): 2 µg/mL | fold change (FC) (Cell membrane [44]): 28 | MIC (Staphylococcus aureus [45]): 1 µg/mL | Activity (Staphylococcus aureus [46]): Active
